The values below come from patent US4460582A, “3-Carboxybenzyl cephems” (Beecham Group P.L.C., priority 1981, dated 1984).

Molecules are shown by their SMILES. Counter-ions that a name gives are not always drawn.

Common to all, as to format: cell-based
Assay [1] relates to Streptococcus faecalis I. The assay can be described thus: MIC in nutrient broth. The following applies: Enterococcus faecalis. From the text:
(§1) The minimum inhibitory concentrations (MIC) of the
(§2) compound of Examples 2 and 4 found necessary to prevent
(§3) growth of various bacteria in nutrient broth were as […]

Assay [2] has as its system Staphylococcus aureus Oxford. The assay can be described thus: MIC in nutrient broth.
From the text: as §1, §2, §3

In the next assay the test system is Escherichia coli 0111. The assay can be described thus: MIC in nutrient broth.
From the text: as §1, §2, §3

The test system of assay [3] is Salmonella typhimurium CT 10. The assay can be described thus: MIC in nutrient broth. The following applies: Salmonella enterica.
From the text: as §1, §2, §3

In the next assay the test system is Bacillus subtilis A. The assay can be described thus: MIC in nutrient broth.
From the text: as §1, §2, §3

Assay [4] concerns Klebsiella aerogenes A. The assay can be described thus: MIC in nutrient broth.
From the text: as §1, §2, §3

For assay [5], the system named is Streptococcus pneumoniae CN 33. The assay can be described thus: MIC in nutrient broth. The following applies: CN33.
From the text: as §1, §2, §3

Another assay concerns Citrobacter freundii E 8. The assay can be described thus: MIC in nutrient broth. The following applies: E8.
From the text: as §1, §2, §3

For assay [6], the system named is Escherichia coli JT 39 (R^+). The assay can be described thus: MIC in nutrient broth.
From the text: as §1, §2, §3

A further assay deals with Proteus morganii I 580. The assay can be described thus: MIC in nutrient broth. The following applies: Morganella morganii, I580.
From the text: as §1, §2, §3

The subject of assay [7] is Serratia marcescens US 20. The assay can be described thus: MIC in nutrient broth. The conditions noted are these: US20.
From the text: as §1, §2, §3

Assay [8] has as its system Streptococcus pyogenes CN 10. The assay can be described thus: MIC in nutrient broth. The conditions noted are these: CN10.
From the text: as §1, §2, §3

The test system of a further assay is Proteus rettgeri WM 16. The assay can be described thus: MIC in nutrient broth. The conditions noted are these: Providencia rettgeri, WM16.
From the text: as §1, §2, §3

For the next assay, the system named is Proteus mirabilis 977. The assay can be described thus: MIC in nutrient broth.
From the text: as §1, §2, §3

In assay [9] the test system is Staphylococcus aureus Russell. The assay can be described thus: MIC in nutrient broth.
From the text: as §1, §2, §3

A further assay has as its system Proteus vulgaris W 091. The assay can be described thus: MIC in nutrient broth. The conditions noted are these: W091.
From the text: as §1, §2, §3

Another assay concerns Pseudomonas aeruginosa A. The assay can be described thus: MIC in nutrient broth.
From the text: as §1, §2, §3

Another assay deals with Enterobacter cloacae N 1. The assay can be described thus: MIC in nutrient broth. The following applies: N1.
From the text: as §1, §2, §3

Another assay relates to Shigella sonnei MB 11967. The assay can be described thus: MIC in nutrient broth. The following applies: MB11967.
From the text: as §1, §2, §3

The subject of assay [10] is Streptococcus faecalis I. The assay can be described thus: MIC on agar. The conditions noted are these: Enterococcus faecalis. An excerpt:
(§4) The Minimum Inhibitory concentrations (MIC) of the compound
(§5) of Example 6 found necessary to prevent growth of various

The next assay relates to Proteus morganii. The assay can be described thus: MIC on agar. The conditions noted are these: Morganella morganii.
From the text: as §4, §5

For assay [11], the system named is Staphylococcus aureus Oxford. The assay can be described thus: MIC on agar.
From the text: as §4, §5

The test system of assay [12] is Neisseria catarrhalis 1502. The assay can be described thus: MIC on agar.
From the text: as §4, §5

The subject of a further assay is Serratia marcescens US32. The assay can be described thus: MIC on agar.
From the text: as §4, §5

Assay [13] deals with Pseudomonas aeruginosa NCTC 10662. The assay can be described thus: MIC on agar. The following applies: NCTC10662.
From the text: as §4, §5

A further assay concerns Proteus mirabilis C977. The assay can be described thus: MIC on agar.
From the text: as §4, §5

Another assay deals with Bacillus subtilis. The assay can be described thus: MIC on agar.
From the text: as §4, §5

For assay [14], the system named is Streptococcus pyogenes CN10. The assay can be described thus: MIC on agar.
From the text: as §4, §5

The subject of assay [15] is Klebsiella aerogenes A. The assay can be described thus: MIC on agar.
From the text: as §4, §5

Assay [16] has as its system Pseudomonas aeruginosa Dalgleish. The assay can be described thus: MIC on agar.
From the text: as §4, §5

In the next assay the test system is Enterobacter cloacae N1. The assay can be described thus: MIC on agar.
From the text: as §4, §5

A further assay has as its system Proteus rettgeri. The assay can be described thus: MIC on agar. The following applies: Providencia rettgeri.
From the text: as §4, §5

The next assay concerns Escherichia coli JT425. The assay can be described thus: MIC on agar.
From the text: as §4, §5

The next assay relates to Escherichia coli JT4. The assay can be described thus: MIC on agar.
From the text: as §4, §5

The subject of assay [17] is Staphylococcus aureus Russell. The assay can be described thus: MIC on agar.
From the text: as §4, §5

As to `CO/N=C(\C(=O)N[C@@H]1C(=O)N2C(C(=O)O)=C(Cc3ccc(C(=O)O)cc3)CS[C@H]12)c1csc(N)n1` [Example 2, (6R,7R)-3-(4-Carboxybenzyl)-7-[2,Z-methoxyimino-2-(2-aminothiazol-4-yl)-acetamido]ceph-3-em-4-carboxylic acid trifluoroacetic acid salt], the MIC is > 100 µg/mL with Streptococcus faecalis I [1]; 12.5 µg/mL in [2]; 6.2 µg/mL with Escherichia coli 0111; 0.4 µg/mL in [3]; 25 µg/mL against Bacillus subtilis A; 0.2 µg/mL with Klebsiella aerogenes A [4]. Further, the MIC in [5] was ≤ 0.1 µg/mL; in the assay on Citrobacter freundii E 8, 25 µg/mL; in [6], 6.2 µg/mL; against Proteus morganii I 580, 1.6 µg/mL; in [7], 12.5 µg/mL; in assay [8], ≤ 0.1 µg/mL. Besides, the MIC against Proteus rettgeri WM 16 was 12.5 µg/mL; against Proteus mirabilis 977, 0.8 µg/mL; in assay [9], 12.5 µg/mL; against Proteus vulgaris W 091 it was 12.5 µg/mL; in the assay on Pseudomonas aeruginosa A, > 100 µg/mL; against Enterobacter cloacae N 1 it was 3.1 µg/mL. Further, the MIC in the assay with Shigella sonnei MB 11967 is 0.4 µg/mL.

As to `CCO/N=C(\C(=O)N[C@@H]1C(=O)N2C(C(=O)O)=C(Cc3ccc(C(=O)O)cc3)CS[C@H]12)c1csc(N)n1` [Example 4, (6R,7R)-3-(4-Carboxybenzyl)-7-[2,Z-ethoxyimino-2-(2-aminothiazol-4-yl)-acetamido]-ceph-3-em-4-carboxylic acid trifluoroacetic acid salt], the MIC against Streptococcus faecalis I [1] was > 100 µg/mL; in [2], 3.1 µg/mL; with Escherichia coli 0111, 3.1 µg/mL; in assay [3], 0.8 µg/mL; against Bacillus subtilis A it was 12.5 µg/mL; in the assay with Klebsiella aerogenes A [4] it was 0.1 µg/mL. In addition, the MIC in [5] turned out to be 6.2 µg/mL; in the assay with Citrobacter freundii E 8, 100 µg/mL; in assay [6], 1.6 µg/mL; in the assay on Proteus morganii I 580 it was 100 µg/mL; in assay [7] it was 3.1 µg/mL; with Proteus rettgeri WM 16, 100 µg/mL. Besides, the MIC against Proteus mirabilis 977 was 0.2 µg/mL; in assay [9], 6.2 µg/mL; in the assay with Proteus vulgaris W 091, 3.1 µg/mL; in the assay with Pseudomonas aeruginosa A it was > 100 µg/mL; against Enterobacter cloacae N 1, 50 µg/mL; in the assay on Shigella sonnei MB 11967, 0.8 µg/mL.

Take `CC(C)(O/N=C(\C(=O)N[C@@H]1C(=O)N2C(C(=O)O)=C(Cc3ccc(C(=O)O)cc3)CS[C@H]12)c1csc(N)n1)C(=O)O` [Example 6, (6R,7R)-3-(4-Carboxybenzyl)-7-[2,Z-(2-carboxyprop-2-oxyimino)-2-(2-aminothiazol-4-yl)-acetamido]-ceph-3-em-4-carboxylic acid trifluoroacetic acid salt]: the MIC against Streptococcus faecalis I [10] is > 100 µg/mL; against Proteus morganii it was 2.5 µg/mL; in [11], 100 µg/mL; in [12] it was < 0.02 µg/mL; in the assay on Serratia marcescens US32, 2.5 µg/mL; in assay [13], 5 µg/mL. In addition, the MIC in the assay on Proteus mirabilis C977 is 0.05 µg/mL; in the assay on Bacillus subtilis it was > 100 µg/mL; in assay [14], 2.5 µg/mL; with Klebsiella aerogenes A [15] it was 0.2 µg/mL; in assay [16], 2.5 µg/mL; against Enterobacter cloacae N1 it was 1 µg/mL. Besides, the MIC in the assay with Proteus rettgeri is 0.2 µg/mL; in the assay on Escherichia coli JT425, 25 µg/mL; against Escherichia coli JT4, 2.5 µg/mL; in assay [17], > 100 µg/mL.
